Results on five compounds are retold here after EPA's ToxRefDB 2.

In data set [1] the test system is rat. Particulars: Multigenerational reproductive toxicity study, sprague dawley, Oral, Feed, dose end: 2 generation.
Data set [2] concerns mouse. Particulars: Subchronic oral toxicity in rodents, swiss albino, Gavage/Intubation, dose end: 14 day, group: systemic.
The subject of data set [3] is rat. Particulars: Subchronic oral toxicity in rodents, fischer, Gavage/Intubation, dose end: 3 month, group: systemic.
Data set [4] has as its system mouse. The following applies: Subchronic oral toxicity in rodents, b6c3f1, Gavage/Intubation, dose end: 3 month, group: systemic.
In data set [5] the test system is rat. Particulars: Subchronic oral toxicity in rodents, sprague dawley, Feed, dose end: 3 month, group: systemic, systemic / clinical chemistry / glucose / glucose + systemic / clinical chemistry / phosphorus / phosphorus + systemic / clinical chemistry….
The subject of data set [6] is rat. Particulars: Combined chronic toxicity/carcinogenicity, sprague dawley, Oral, Feed, dose end: 24 month, group: systemic.
The test system of data set [7] is mouse. Particulars: Carcinogenicity; cd1; Oral; Feed; dose end: 24 month; group: systemic; systemic / in life observation / body weight / body weight + systemic / pathology microscopic / kidney / basophilia + systemic / pathology ….
In data set [8] the test system is rat. The following applies: Multigenerational reproductive toxicity study, sprague dawley, Oral, Feed, dose end: 2 generation. The source holds these as a separate data set.
Data set [9] has as its system rat. Particulars: Prenatal developmental toxicity study, sprague dawley, Oral, Gavage/Intubation, dose end: 19 GD.
The test system of data set [10] is dog. Particulars: Chronic toxicity, beagle, Oral, Feed, dose end: 1 year, group: cholinesterase.
For data set [11], the system named is mouse. The following applies: Combined chronic toxicity/carcinogenicity, b6c3f1, Oral, Feed, dose end: 2 year.
In data set [12] the test system is rat. Particulars: Subchronic oral toxicity in rodents, wistar, Feed, dose end: 86 day.
A further data set concerns rabbit. Particulars: Prenatal developmental toxicity study, himalayan, Oral, Gavage/Intubation, dose end: 18 GD.
The subject of data set [13] is rat. Particulars: Prenatal developmental toxicity study, sprague dawley, Oral, Gavage/Intubation, dose end: 15 GD.
For data set [14], the system named is rat. Particulars: Subchronic oral toxicity in rodents, sprague dawley, Feed, dose end: 90 day, group: systemic, systemic / clinical chemistry / alkaline phosphatase (alp/alk) / alkaline phosphatase (alp/alk) + systemic / hematology / mean corpuscular ….
Data set [15] deals with rat. Particulars: Combined chronic toxicity/carcinogenicity, sprague dawley, Oral, Feed, dose end: 24 month, group: systemic. The source holds these as a separate data set.
The test system of data set [16] is dog. The following applies: Chronic toxicity, beagle, Oral, Feed, dose end: 1 year, group: systemic.
Data set [17] concerns dog. The following applies: Subchronic oral toxicity in nonrodent, beagle, Feed, dose end: 90 day, group: systemic.
The mark [18] stands for this setting: group: offspring, systemic / in life observation / body weight / offspring (pup) weight.
[19] abbreviates: group: parental, systemic / hematology / lymphocyte / lymphocyte + systemic / hematology / platelet / platelet + systemic / organ weight / spleen / nos + ….
[20] abbreviates: systemic / hematology / sulphemoglobin / sulphemoglobin.
[21] abbreviates: systemic / hematology / sulphemoglobin / sulphemoglobin + systemic / hematology / heinz body / heinz body + systemic / hematology / ….
[22] abbreviates: systemic / clinical chemistry / alanine aminotransferase (alt/sgpt) / alanine aminotransferase (alt/sgpt) + systemic / clinical chemistry / ….
Setting [23] is: systemic / pathology microscopic / liver / hyperplasia + systemic / pathology microscopic / liver / inflammation + systemic / hematology / ….
[24] abbreviates: systemic / in life observation / body weight / body weight + systemic / in life observation / body weight / body weight gain + systemic / in….
[25] abbreviates: systemic / pathology microscopic / stomach / inflammation.
[26] abbreviates: systemic / pathology microscopic / stomach / inflammation + systemic / in life observation / body weight / body weight + systemic / in life ….
The mark [27] stands for this setting: group: offspring, systemic / in life observation / body weight / offspring (pup) weight + systemic / in life observation / body weight / offspring (pup) ….
[28] abbreviates: group: parental, systemic / in life observation / body weight / body weight + systemic / in life observation / clinical signs / soft stools.
The mark [29] stands for this setting: group: parental, systemic / in life observation / body weight / body weight + systemic / in life observation / clinical signs / soft stools + systemic / in ….
Setting [30] is: group: developmental, developmental / developmental malformation / bone / unossified + systemic / in life observation / body weight / fetal weight.
Setting [31] is: group: maternal, systemic / in life observation / body weight / body weight gain + systemic / in life observation / clinical signs / defecation (diarrhea) + ….
Setting [32] is: cholinesterase / cholinesterase / cholinesterase / brain cholinesterase (che) + cholinesterase / cholinesterase / cholinesterase / plasma ….
The mark [33] stands for this setting: cholinesterase / cholinesterase / cholinesterase / brain cholinesterase (che) + cholinesterase / cholinesterase / cholinesterase / ….
[34] abbreviates: group: cholinesterase, cholinesterase / cholinesterase / cholinesterase / erythrocyte cholinesterase (che).
The mark [35] stands for this setting: group: systemic, systemic / in life observation / body weight / body weight + systemic / in life observation / body weight / body weight gain + systemic / in….
The mark [36] stands for this setting: group: systemic, systemic / organ weight / adrenal gland / nos.
Where [37] appears, read: group: cholinesterase, cholinesterase / cholinesterase / cholinesterase / brain (regional) cholinesterase (che) + cholinesterase / cholinesterase / cholinesterase….
Where [38] appears, read: group: systemic, systemic / pathology microscopic / seminal vesicle / colloid content.
The mark [39] stands for this setting: group: maternal, reproductive / reproductive performance / resorptions / resorptions + reproductive / reproductive performance / aborted / aborted + systemic….
The mark [40] stands for this setting: group: developmental, developmental / developmental malformation / bone / supernumerary + developmental / developmental malformation / bone / unossified.
Where [41] appears, read: group: maternal, systemic / in life observation / body weight / body weight gain + systemic / in life observation / clinical signs / salivation + systemic / ….
[42] abbreviates: systemic / clinical chemistry / gamma glutamyl transferase (ggt) / gamma glutamyl transferase (ggt) + systemic / organ weight / kidney / ….
Setting [43] is: systemic / hematology / anemia / anemia - hemolytic + systemic / hematology / erythrocyte (rbc) count differential / erythrocyte (rbc) + ….
Where [44] appears, read: systemic / pathology microscopic / liver / hyperplasia + systemic / pathology microscopic / liver / hypertrophy + systemic / clinical ….
Where [45] appears, read: systemic / in life observation / body weight / body weight gain + systemic / clinical chemistry / alanine aminotransferase (alt/sgpt) / ….

One may read the LOAEL as the lowest dose or exposure tested at which an adverse effect was seen. One may read the NOAEL as the highest tested level that showed no adverse finding.

Bounds are passed on as bounds.

In the data set on rat [1] (setting [18]), `O=C(NC(=O)c1c(F)cccc1F)Nc1ccc(Cl)cc1` [Diflubenzuron] came in with an LEL of 3800 mg/kg/day, an LOAEL of 3800 mg/kg/day, an NEL of 360 mg/kg/day and an NOAEL of 360 mg/kg/day. In the data set on rat [1] (setting [19]), the LEL is 36 mg/kg/day, the LOAEL was found to be 36 mg/kg/day, the NEL was < 36 mg/kg/day and the NOAEL is < 36 mg/kg/day. In the data set on mouse [2] (setting [20]), the LEL was found to be 200 mg/kg/day and the LOAEL came to 200 mg/kg/day. For the same compound, in the data set with mouse [2] (setting [21]), the NEL was determined as 40 mg/kg/day and the NOAEL is 40 mg/kg/day.

Turning to `C=CCc1ccc(OC)cc1` [Estragole], the lowest-observed-adverse-effect level (LOAEL) in the data set with rat [3] (setting [22]) and in the data set on mouse [4] (setting [24]) was > 600 mg/kg/day each time. Moreover, the NOAEL with rat [3] (setting [22]) and with mouse [4] (setting [24]) was ≥ 600 mg/kg/day in each case. Also, the LEL in the data set with rat [3] (setting [23]) amounted to 37.5 mg/kg/day; with mouse [4] (systemic / in life observation / body weight / body weight + systemic / in life observation / body weight / body weight gain + systemic / …), 75 mg/kg/day. The NEL in the data set on rat [3] (setting [23]) was < 37.5 mg/kg/day; with mouse [4] (setting [24]), 37.5 mg/kg/day.

`O=C(O)CNCP(=O)(O)O` [Glyphosate]: the LEL in the data set on rat [5] came to 63 mg/kg/day; in the data set with rat [6] (setting [25]), 457 mg/kg/day; in the data set on mouse [7] it was 4500 mg/kg/day; in the data set with rat [8] (setting [27]), 1500 mg/kg/day; in the data set on rat [8] (setting [29]), 1500 mg/kg/day; with rat [9] (setting [30]) it was 3500 mg/kg/day. Further, the LEL with rat [9] (setting [31]) is 3500 mg/kg/day. In addition, the lowest observed adverse effect level (LOAEL) is > 1270 mg/kg/day with rat [5]; 457 mg/kg/day in the data set with rat [6] (setting [25]); 4500 mg/kg/day in the data set on mouse [7]; 1500 mg/kg/day in the data set with rat [8] (setting [27]); 1500 mg/kg/day in the data set on rat [8] (setting [29]); 3500 mg/kg/day with rat [9] (setting [30]). Moreover, the LOAEL with rat [9] (setting [31]) is 3500 mg/kg/day. Further, the NEL in the data set with rat [5] is < 63 mg/kg/day; in the data set on rat [6] (setting [26]) it was 113 mg/kg/day; with mouse [7], 750 mg/kg/day; with rat [8] (setting [27]) it was 500 mg/kg/day; in the data set with rat [8] (setting [28]), 500 mg/kg/day; with rat [9] (setting [30]), 1000 mg/kg/day. In addition, the NEL in the data set on rat [9] (setting [31]) amounted to 1000 mg/kg/day. In addition, the NOAEL in the data set on rat [5] is ≥ 1270 mg/kg/day; in the data set on rat [6] (setting [26]), 113 mg/kg/day; in the data set with mouse [7] it was 750 mg/kg/day; in the data set with rat [8] (setting [27]) it was 500 mg/kg/day; in the data set with rat [8] (setting [28]), 500 mg/kg/day; with rat [9] (setting [30]), 1000 mg/kg/day. For the same compound, the no observed adverse effect level (NOAEL) with rat [9] (setting [31]) was found to be 1000 mg/kg/day.

Turning to `CCOP(=S)(Oc1cnc(C(C)(C)C)nc1)OC(C)C` (stereo not given) [Tebupirimfos], the LEL with dog [10] (setting [32]) stood at 0.005 mg/kg/day; in the data set on mouse [11] (setting [34]) it was 0.16 mg/kg/day; with mouse [11] (setting [36]), 0.52 mg/kg/day; in the data set with rat [12] (setting [34]), 0.3 mg/kg/day; in the data set with rat [12] (setting [38]) it was 0.2 mg/kg/day; with rabbit (setting [34]) it was 0.3 mg/kg/day. In addition, in the data set with rabbit (group: maternal, reproductive / reproductive performance / resorptions / resorptions + reproductive / offspring survival early / live fetuses / live fetuses…), the LEL turned out to be 0.3 mg/kg/day. In addition, the NEL with dog [10] (setting [32]) is < 0.005 mg/kg/day; in the data set on mouse [11] (setting [34]), < 0.16 mg/kg/day; in the data set with mouse [11] (setting [36]), < 0.52 mg/kg/day; in the data set with rat [12] (setting [37]) it was 0.2 mg/kg/day; in the data set on rat [12] (setting [38]), < 0.2 mg/kg/day; in the data set on rabbit (setting [34]) it was 0.1 mg/kg/day. The NEL in the data set with rabbit (setting [39]) was determined as 0.1 mg/kg/day. Moreover, the LOAEL came out at 0.125 mg/kg/day in the data set with dog [10] (setting [33]); 0.16 mg/kg/day in the data set on mouse [11] (setting [34]); 38.8 mg/kg/day in the data set with mouse [11] (setting [35]); 1 mg/kg/day in the data set on rat [12] (setting [37]); 3.6 mg/kg/day with rat [12] (group: systemic, systemic / in life observation / body weight / body weight gain + systemic / in life observation / food consumption / food consumption); 0.3 mg/kg/day with rabbit (setting [34]). Further, the lowest-observed-adverse-effect level (LOAEL) in the data set on rabbit (group: maternal, reproductive / reproductive performance / resorptions / resorptions + reproductive / offspring survival early / live fetuses / live fetuses) came to 0.3 mg/kg/day. In addition, the NOAEL was 0.02 mg/kg/day in the data set on dog [10] (setting [33]); < 0.16 mg/kg/day in the data set with mouse [11] (setting [34]); 4.53 mg/kg/day in the data set with mouse [11] (setting [35]); 0.3 mg/kg/day in the data set with rat [12] (setting [37]); 1 mg/kg/day in the data set on rat [12] (group: systemic, systemic / in life observation / body weight / body weight gain + systemic / in life observation / food consumption / food consumption + …); 0.1 mg/kg/day in the data set on rabbit (setting [34]). The no observed adverse effect level (NOAEL) with rabbit (setting [39]) was 0.1 mg/kg/day.

In the case of `COC(=O)c1c(C(F)F)nc(C(F)(F)F)c(C2=NCCS2)c1CC(C)C` [Thiazopyr], the LEL was determined as 250 mg/kg/day in the data set with rat [13] (setting [40]); 100 mg/kg/day in the data set with rat [13] (group: maternal, systemic / organ weight / liver / nos); 68 mg/kg/day in the data set on rat [14]; 5.6 mg/kg/day with rat [15] (setting [43]); 7.8 mg/kg/day in the data set with dog [16] (setting [44]); 3 mg/kg/day in the data set on dog [17] (systemic / in life observation / body weight / body weight gain + systemic / clinical chemistry / albumin-globulin ratio / albumin-globulin …). The LOAEL with rat [13] (setting [40]) amounted to 250 mg/kg/day; with rat [13] (setting [41]), 250 mg/kg/day; in the data set on rat [14], 68 mg/kg/day; in the data set with rat [15] (setting [42]) it was 44.2 mg/kg/day; in the data set with dog [16] (systemic / pathology microscopic / liver / hyperplasia + systemic / pathology microscopic / liver / hypertrophy), 7.8 mg/kg/day; with dog [17] (systemic / in life observation / body weight / body weight gain) it was 3 mg/kg/day. In addition, the NEL in the data set with rat [13] (setting [40]) is 100 mg/kg/day; in the data set on rat [13] (setting [41]), 10 mg/kg/day; in the data set on rat [14] it was 6.6 mg/kg/day; in the data set on rat [15] (setting [43]) it was 0.6 mg/kg/day; in the data set on dog [16] (setting [44]) it was 0.8 mg/kg/day; with dog [17] (setting [45]), 2 mg/kg/day. The no-observed-adverse-effect level (NOAEL) was determined as 100 mg/kg/day with rat [13] (setting [40]); 100 mg/kg/day with rat [13] (setting [41]); 6.6 mg/kg/day with rat [14]; 4.4 mg/kg/day in the data set on rat [15] (setting [42]); 0.8 mg/kg/day in the data set on dog [16] (setting [44]); 2 mg/kg/day in the data set with dog [17] (setting [45]).
